Laboratory results as given in US9688633B2, “Substituted piperidines with antiparasitic activity” (INSTITUT DE RECHERCHE POUR LE DEVELOPPEMENT, priority 2014, dated 2017).
Read-outs that look alike come from different tables or passages of the source.

Experiments:
[1] = Toxicity assay, MTT viability on VERO cells; format: cell-based, African Green Monkey; details: African green monkey
Procedure: (§1) Drugs were added at different concentrations and the cells were cultured for 48 hours. The effect was determined using the 3-(4,5-dimethylthiazol-2-yl)-2,5-diphenyltetrazolium bromide (MTT) viability assay. Four hours after the addition of MTT, 100 μl of lysis buffer (50% isopropanol, 30% water, 20% SDS) were added and the cells were incubated at room temperature for 15 min under agitation. Finally, optical density was read at 590 nm with a 96-well scanner (Bio-Rad). All experiments were performed in triplicate.

[2] = system: Plasmodium falciparum FCR-3; test: In vitro antiplasmodial drug assay ([3H]-hypoxanthine incorporation); format: cell-based
Procedure: The drugs dissolved in dimethylsulfoxide (DMSO) were added at final concentrations ranging from 200 to 0.1 μM. All experiments were performed in triplicate. The final DMSO concentration was never greater than 0.1%. […].
% Inhibition of the incorporation of labeled hypoxanthine=100−(P/T*100),
P: c.p.m. for every concentration, and
T: negative control (red blood cells without drug).

P. berghei ANKA = test: In vivo antiplasmodial drug assay (4-day suppressive test) in murine model; details: Swiss male mice, 4 consecutive days, read on day 4
Procedure: The antiplasmodial activity of Compound 7 was tested in vivo in a murine model. The antiplasmodial activity of a Compound A representative of the prior art was also tested: Studies were conducted according to the French and Colombian guidelines on laboratory animal use and care (No 2001-464 and No 008430, respectively). The classical 4-day suppressive test was carried out (W. Peters, Chemotherapy and drug resistance in malaria, Academic Press: London, 1970). Swiss male mice weighing 20±2 g, were infected with 10^7 P. berghei ANKA parasitized cells (day 0). […] […] Survival of the mice was checked daily and the percentage of parasitized erythrocytes was determined on day 4, by Giemsa-stained thin blood smears made from peripheral blood. The percentage of inhibition of parasitaemia was calculated.

mice = test: Cytotoxicity (toxicity) after administration in a malaria murine model; format: in vivo, mouse; details: 50 mg·kg^-1, malaria murine model
Procedure: The cytotoxicity of Compound 7 was compared to the cytotoxicity of Compound 31 of the publication of Silvia Perez-Silanes et al., Molecules 2009, 14, 4120-4135, the compounds only differentiated by the nature of the Ar group (4-fluoro-1-phenyl group vs benzo[b]thiophenyl).
Both compounds were administered at 50 mg·kg^−1 in a malaria murine model.

VERO cells = test: Toxicity assay, MTT viability on VERO cells; format: cell-based, African Green Monkey; details: VERO cells survival, 48 hours, MTT; average of three independent determinations; read-out: TC50 (the source's name)
Procedure: as §1

[3] = FCR3, chloroquine-resistant FCR-3 strain, 50% of Plasmodium falciparum growth, average of three independent determinations, read-out: IC50
[4] = chloroquine-resistant FCR-3 strain, 50% of Plasmodium falciparum growth, average of three independent determinations, read-out: IC50

Compound: OC(CCN1CC=C(c2ccc(F)cc2)CC1)c1ccc(F)cc1 (stereo not drawn) [Compound 8, 1-(4-fluorophenyl)-3-[4-(4-fluorophenyl)-3,6-dihydropyridin-1 (2H)-yl]propan-1-ol]
- melting point: 199 to 201 °C
- CC50 at 48 h [1]: > 100 µM
- IC50 [2, 3]: 0.66 µM

Compound: CCN(CC)CCCC(C)Nc1ccnc2cc(Cl)ccc12 (stereo not drawn) [CQ, chloroquine, reference compound]
- IC50 ([2]; Plasmodium falciparum, FCR3): 0.13 µM
- percentage of inhibition of parasitaemia (P. berghei ANKA; 3 mg/kg/day oral): 65%

Compound: Cl.O=[N+]([O-])c1ccc(N2CCC(NCCC(O)c3ccc(F)cc3)CC2)c(C(F)(F)F)c1 (stereo not drawn) [Compound 7]
- cytotoxicity after administration (mice): No cytotoxicity was detected
- CC50 (VERO cells): 30.2 µM
- IC50 [2, 4]: 0.48 µM
- percentage of inhibition of parasitaemia (P. berghei ANKA; 50 mg/kg/day oral): 76%

Compound: OC(CCN1CC=C(c2ccc(F)cc2)CC1)c1ccc2ccccc2c1 (stereo not drawn) [Compound 3, 3-[4-(4-fluorophenyl)-3,6-dihydropyridin-1(2H)-yl]-1-(naphthalen-2-yl)propan-1-ol]
- melting point: 127 to 129 °C
- CC50 at 48 h [1]: > 100 µM
- IC50 [2, 3]: 36.1 µM

Compound: 3-[4-(4-fluorophenyl)-3,6-dihydropyridin-1(2H)-yl]-1-(4-(trifluoromethyl phenyl)propan-1-ol) [Compound 4]
- CC50 (VERO cells): > 100 µM
- IC50 [2, 4]: 5.6 µM

Compound: OC(CCN1CC=C(c2ccc(F)cc2)CC1)c1ccc(F)c2ccccc12 (stereo not drawn) [Compound 6, 1-(4-fluoronaphthalen-1-yl)-3-[4-(4-fluorophenyl)-3,6-dihydropyridin-1(2H)-yl]propan-1-ol]
- CC50 at 48 h [1]: > 50 µM
- IC50 [2, 3]: 0.4 µM

Compound: O=[N+]([O-])c1ccc(N2CCC(NCCC(O)c3ccc(F)c4ccccc34)CC2)c(C(F)(F)F)c1 (stereo not drawn) [Compound 5, 1-(4-fluoronaphthalen-1-yl)-3-((1-(4-nitro-2-(trifluoromethyl)phenyl)piperidin-4-yl)amino)propan-1-ol]
- CC50 at 48 h ([1]; VERO cells (kidney epithelial cells), VERO cells survival, 48 hours, MTT, average of three independent determinations, read-out: TC50): 5.5 µM
- IC50 [2, 3]: 0.15 µM
